The text below walks through data of US10316021B2, “Heteroarylphenoxy benzamide kappa opioid ligands” (Pfizer Inc., priority 2016, dated 2019).

Assay [1] concerns the target T1, kappa opioid receptor (Mus musculus, UniProt P33534).
T1 construct: from tissue; host or cells: brain of adult male C57BL/6J mice (in vivo)
In words: Progressive ratio responding (reversal of spiradoline-induced deficit in motivation). Type of assay: in vivo. The settings on record: co-administered with spiradoline, receptor occupancy measured in a separate group of animals. An excerpt:
(§1) Adult male C576BL/J6 mice from Jackson Labs (Bar Harbor, Me.) were group housed on individually-vented cage racks, in environmentally-controlled animal quarters (light/dark-6:00 am/6:[…]) for a minimum of 7 days prior to use. For progressive ratio studies, mice were food-restricted to 80-85% of their body weight before testing began. All animal procedures were approved by the Pfizer Inc. IACUC and conducted in accordance with the NIH Guide for the Care and Use of Laboratory Animals.
Progressive Ratio Responding:
Motivation and food-reinforced operant behavior were assessed in the progressive ratio assay. Adult male C576BL/J6 mice were food-restricted to 80-85% of their body weight over a period of one week and kept in their home cages. Mice were trained to nose-poke for a food reward. […] Mice were assessed in a 60 minute session, where the number of rewards obtained was used as a surrogate of the level of motivation. Once mice had reached a stable level of responding, mice were dosed with the kappa opioid receptor agonist, spiradoline (3.2 mg/kg s.c.), to induce a deficit in motivation. Mice were co-administered increasing doses of the kappa opioid receptor antagonists (0.0032-3.2 mg/kg s.c.) to assess their ability to antagonize the spiradoline-induced deficit.

In assay [2] the target is T1, kappa opioid receptor. In words: In vivo receptor occupancy (displacement of [3H]GR103545 in brain). The conditions noted are these: subcutaneous dosing; for IC50: displacement of [3H]GR103545, unbound brain concentration, read-out: Mouse KOR IVRO unbound brain IC50.
Description: as §1
In Vivo Receptor Occupancy
In vivo receptor occupancy was assessed in adult male C57BL6/J mice. Mice were administered increasing doses (0.001-32 mg/kg s.c.) 30 min prior to administration of the kappa opioid receptor ligand, [^3H]GR103545 (100 μCi/kg, intraorbital). Animals were euthanized 10 min later using cervical dislocation and the brains dissected. One hemisphere was stored at −40° C. for subsequent measurement of compound concentration, the other was homogenized in chilled Tris-HCl buffer (50 mM, pH 7.4; 1:10 w/v) for twenty seconds. Samples of brain homogenate were filtered through 0.3 to 0.5% PEI-soaked GF/B filters, and the filters washed twice with chilled buffer before radioactivity was counted overnight using a scintillation counter. Binding of the ligand in cerebellum was used to determine non-specific binding.
For orientation: Loss of bound radioactivity is the signal in a displacement assay; it reports binding, not function.

The IC50 is the point on the concentration scale where inhibition reaches its midpoint.

T1 sequence (P33534 whole entry): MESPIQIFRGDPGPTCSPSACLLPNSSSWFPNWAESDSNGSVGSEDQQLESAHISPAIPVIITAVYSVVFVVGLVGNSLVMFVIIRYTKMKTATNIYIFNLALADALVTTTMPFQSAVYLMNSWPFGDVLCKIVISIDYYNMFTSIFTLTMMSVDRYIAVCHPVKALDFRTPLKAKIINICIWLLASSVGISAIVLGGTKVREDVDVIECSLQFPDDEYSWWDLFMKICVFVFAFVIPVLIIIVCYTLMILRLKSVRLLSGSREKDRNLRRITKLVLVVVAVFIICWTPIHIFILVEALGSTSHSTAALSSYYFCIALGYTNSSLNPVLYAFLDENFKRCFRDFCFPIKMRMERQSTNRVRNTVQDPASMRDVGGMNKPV

Consider `Cc1cc(C)cc([C@@H]2CCCN2Cc2ccc(Oc3ccc(C(N)=O)cc3F)cc2)c1` [Comparator E, reference compound], for which the “% KOR IVRO to achieve 50% PR reversal” value at kappa opioid receptor [1] was 70%. On kappa opioid receptor [2], the “displacement of KOR agonist radioligand binding in the brain, in words” value (“displacement” for short) is “displaced KOR agonist radioligand ([^3H]GR103545) binding in the brain in an exposure-dependent manner” and the 50% inhibitory concentration (IC50) came to 0.015 nM.

`COc1nn(C)cc1[C@@H]1CCCN1Cc1ccc(Oc2ccc(C(N)=O)cc2)cc1` (single isomer, unassigned) [Example 12]: the “% KOR IVRO to achieve 50% PR reversal” value at kappa opioid receptor [1] was 30%. Besides, on kappa opioid receptor [2], the “displacement” value is “displaced KOR agonist radioligand ([^3H]GR103545) binding in the brain in an exposure-dependent manner” and the half-inhibitory concentration (IC50) came out at 2.5 nM.

Regarding `Cc1nn(C)cc1[C@@H]1CCCN1Cc1ccc(Oc2ccc(C(N)=O)cc2)cc1` [Example 11, 4-(4-{[(2S)-2-(1,3-Dimethyl-1H-pyrazol-4-yl)pyrrolidin-1-yl]methyl}phenoxy)benzamide], at kappa opioid receptor [1], the “% KOR IVRO to achieve 50% PR reversal” value is recorded as 30%. On kappa opioid receptor [2], the “displacement” value was “displaced KOR agonist radioligand ([^3H]GR103545) binding in the brain in an exposure-dependent manner” and the IC50 amounted to 2.5 nM.

For `COc1nn(C)cc1C1CCCN1Cc1ccc(Oc2ccc(C(N)=O)cc2F)cc1` (single isomer, unassigned; (-)) [Example 8, (−)-3-Fluoro-4-(4-{[2-(3-methoxy-1-methyl-1H-pyrazol-4-yl)pyrrolidin-1-yl]methyl}phenoxy)benzamide], on kappa opioid receptor [1], the “% KOR IVRO to achieve 50% PR reversal” value is 25%. At kappa opioid receptor [2], the “displacement” value was “displaced KOR agonist radioligand ([^3H]GR103545) binding in the brain in an exposure-dependent manner” and the concentration for half-maximal inhibition (IC50) was 0.69 nM.
